Species: Rattus norvegicus
Assay: DrugMatrix - Regimen: Daily Repeat
Type: toxicity, organism-based, Sprague-Dawley
Set-up: regimen Daily Repeat, gender Male, age 6-8 weeks
Settings: in vivo, po, route oral GAVAGE, vehicle 100 % WATER; for ABSOLUTE BASOPHIL / ABSOLUTE EOSINOPHIL / ABSOLUTE LYMPHOCYTE / ABSOLUTE MONOCYTE / ABSOLUTE SEGMENTED NEUTROPHIL / BASOPHIL / EOSINOPHIL / ERYTHROCYTE COUNT / HEMATOCRIT / HEMOGLOBIN / LEUKOCYTE COUNT / LYMPHOCYTE / MEAN CORPUSCULAR HEMOGLOBIN / MEAN CORPUSCULAR HEMOGLOBIN CONCENTRATION / MEAN CORPUSCULAR VOLUME / MONOCYTE / NEUTROPHIL / NUCLEATED RED BLOOD CELLS / PLATELET COUNT: tissue Blood; for ALANINE AMINOTRANSFERASE / ALKALINE PHOSPHATASE / ASPARTATE AMINOTRANSFERASE / BLOOD UREA NITROGEN / CARBON DIOXIDE / CHLORIDE / CHOLESTEROL / CREATINE PHOSPHOKINASE / CREATININE / GLUCOSE / LACTATE DEHYDROGENASE / LIPASE / PHOSPHORUS / POTASSIUM / SODIUM / TOTAL BILIRUBIN / TOTAL PROTEIN / URIC ACID: tissue Plasma
[1] = 0 mg/kg, 72 h, dose level Control, time 3 day
[2] = 0 mg/kg, 120 h, dose level Control, time 5 day
[3] = […], 72 h, dose 7.5 mg/Kg, dose level Low, time 3 day
[4] = […], 120 h, dose 7.5 mg/Kg, dose level Low, time 5 day

CNC1=Nc2ccc(Cl)cc2C(c2ccccc2)=[N+]([O-])C1 [CHLORDIAZEPOXIDE]
ABSOLUTE BASOPHIL [1]: 0 CELLS/uL
ABSOLUTE EOSINOPHIL [1]: 40 CELLS/uL
ABSOLUTE LYMPHOCYTE [1]: 13599.5 CELLS/uL
ABSOLUTE MONOCYTE [1]: 239.33 CELLS/uL
ABSOLUTE SEGMENTED NEUTROPHIL [1]: 1021.17 CELLS/uL
BASOPHIL [1]: 0%
EOSINOPHIL [1]: 0.33%
ERYTHROCYTE COUNT [1]: 5.71 x10E6/uL
HEMATOCRIT [1]: 36.35%
HEMOGLOBIN [1]: 14.05 G/DL
LEUKOCYTE COUNT [1]: 14.9 x10E3/uL
LYMPHOCYTE [1]: 91%
MEAN CORPUSCULAR HEMOGLOBIN [1]: 24.62 pg
MEAN CORPUSCULAR HEMOGLOBIN CONCENTRATION [1]: 38.65 G/DL
MEAN CORPUSCULAR VOLUME [1]: 63.7 fL
MONOCYTE [1]: 1.5%
NEUTROPHIL [1]: 7.17%
NUCLEATED RED BLOOD CELLS [1]: 0.33 /100WBC
PLATELET COUNT [1]: 1225.5 x10E3/uL
ALANINE AMINOTRANSFERASE [1]: 48.5 u/L
ALKALINE PHOSPHATASE [1]: 390.83 u/L
ASPARTATE AMINOTRANSFERASE [1]: 89 u/L
BLOOD UREA NITROGEN [1]: 14.83 mg/dL
CARBON DIOXIDE [1]: 24.83 mmol/L
CHLORIDE [1]: 100.83 MEQ/L
CHOLESTEROL [1]: 72.5 mg/dL
CREATINE PHOSPHOKINASE [1]: 503 u/L
CREATININE [1]: 0.2 mg/dL
GLUCOSE [1]: 163 mg/dL
LACTATE DEHYDROGENASE [1]: 316.83 u/L
LIPASE [1]: 9.83 u/L
PHOSPHORUS [1]: 11.57 mg/dL
POTASSIUM [1]: 6.16 MEQ/L
SODIUM [1]: 142.62 MEQ/L
TOTAL BILIRUBIN [1]: 0.2 mg/dL
TOTAL PROTEIN [1]: 5.8 G/DL
URIC ACID [1]: 1.65 mg/dL
ABSOLUTE BASOPHIL [2]: 0 CELLS/uL
ABSOLUTE EOSINOPHIL [2]: 21 CELLS/uL
ABSOLUTE LYMPHOCYTE [2]: 14288.5 CELLS/uL
ABSOLUTE MONOCYTE [2]: 205.33 CELLS/uL
ABSOLUTE SEGMENTED NEUTROPHIL [2]: 968.5 CELLS/uL
BASOPHIL [2]: 0%
EOSINOPHIL [2]: 0.17%
ERYTHROCYTE COUNT [2]: 5.83 x10E6/uL
HEMATOCRIT [2]: 36.53%
HEMOGLOBIN [2]: 14.4 G/DL
LEUKOCYTE COUNT [2]: 15.48 x10E3/uL
LYMPHOCYTE [2]: 92%
MEAN CORPUSCULAR HEMOGLOBIN [2]: 24.72 pg
MEAN CORPUSCULAR HEMOGLOBIN CONCENTRATION [2]: 39.43 G/DL
MEAN CORPUSCULAR VOLUME [2]: 62.68 fL
MONOCYTE [2]: 1.33%
NEUTROPHIL [2]: 6.5%
NUCLEATED RED BLOOD CELLS [2]: 0.17 /100WBC
PLATELET COUNT [2]: 1280.5 x10E3/uL
ALANINE AMINOTRANSFERASE [2]: 50 u/L
ALKALINE PHOSPHATASE [2]: 380.17 u/L
ASPARTATE AMINOTRANSFERASE [2]: 82.67 u/L
BLOOD UREA NITROGEN [2]: 15.33 mg/dL
CARBON DIOXIDE [2]: 27.17 mmol/L
CHLORIDE [2]: 100.33 MEQ/L
CHOLESTEROL [2]: 60.67 mg/dL
CREATINE PHOSPHOKINASE [2]: 441.5 u/L
CREATININE [2]: 0.16 mg/dL
GLUCOSE [2]: 146 mg/dL
LACTATE DEHYDROGENASE [2]: 189.33 u/L
LIPASE [2]: 9.17 u/L
PHOSPHORUS [2]: 11.67 mg/dL
POTASSIUM [2]: 6.86 MEQ/L
SODIUM [2]: 142.33 MEQ/L
TOTAL BILIRUBIN [2]: 0.2 mg/dL
TOTAL PROTEIN [2]: 6.12 G/DL
URIC ACID [2]: 1.82 mg/dL
ABSOLUTE BASOPHIL [3]: 0 CELLS/uL
ABSOLUTE EOSINOPHIL [3]: 54 CELLS/uL
ABSOLUTE LYMPHOCYTE [3]: 12748.67 CELLS/uL
ABSOLUTE MONOCYTE [3]: 258 CELLS/uL
ABSOLUTE SEGMENTED NEUTROPHIL [3]: 2072.67 CELLS/uL
BASOPHIL [3]: 0%
EOSINOPHIL [3]: 0.33%
ERYTHROCYTE COUNT [3]: 5.45 x10E6/uL
HEMATOCRIT [3]: 34.1%
HEMOGLOBIN [3]: 13.23 G/DL
LEUKOCYTE COUNT [3]: 15.13 x10E3/uL
LYMPHOCYTE [3]: 84.33%
MEAN CORPUSCULAR HEMOGLOBIN [3]: 24.3 pg
MEAN CORPUSCULAR HEMOGLOBIN CONCENTRATION [3]: 38.8 G/DL
MEAN CORPUSCULAR VOLUME [3]: 62.57 fL
MONOCYTE [3]: 1.67%
NEUTROPHIL [3]: 13.67%
NUCLEATED RED BLOOD CELLS [3]: 0.33 /100WBC
PLATELET COUNT [3]: 1319 x10E3/uL
ALANINE AMINOTRANSFERASE [3]: 50.33 u/L
ALKALINE PHOSPHATASE [3]: 379.67 u/L
ASPARTATE AMINOTRANSFERASE [3]: 95 u/L
BLOOD UREA NITROGEN [3]: 15.67 mg/dL
CARBON DIOXIDE [3]: 26 mmol/L
CHLORIDE [3]: 101 MEQ/L
CHOLESTEROL [3]: 60.33 mg/dL
CREATINE PHOSPHOKINASE [3]: 360.33 u/L
CREATININE [3]: 0.17 mg/dL
GLUCOSE [3]: 162.33 mg/dL
LACTATE DEHYDROGENASE [3]: 326.33 u/L
LIPASE [3]: 8.67 u/L
PHOSPHORUS [3]: 12.63 mg/dL
POTASSIUM [3]: 7.24 MEQ/L
SODIUM [3]: 142.77 MEQ/L
TOTAL BILIRUBIN [3]: 0.27 mg/dL
TOTAL PROTEIN [3]: 5.87 G/DL
URIC ACID [3]: 2 mg/dL
ABSOLUTE BASOPHIL [4]: 0 CELLS/uL
ABSOLUTE EOSINOPHIL [4]: 0 CELLS/uL
ABSOLUTE LYMPHOCYTE [4]: 13599 CELLS/uL
ABSOLUTE MONOCYTE [4]: 187.67 CELLS/uL
ABSOLUTE SEGMENTED NEUTROPHIL [4]: 813.33 CELLS/uL
BASOPHIL [4]: 0%
EOSINOPHIL [4]: 0%
ERYTHROCYTE COUNT [4]: 5.46 x10E6/uL
HEMATOCRIT [4]: 34.73%
HEMOGLOBIN [4]: 13.83 G/DL
LEUKOCYTE COUNT [4]: 14.6 x10E3/uL
LYMPHOCYTE [4]: 93%
MEAN CORPUSCULAR HEMOGLOBIN [4]: 25.37 pg
MEAN CORPUSCULAR HEMOGLOBIN CONCENTRATION [4]: 39.83 G/DL
MEAN CORPUSCULAR VOLUME [4]: 63.7 fL
MONOCYTE [4]: 1.33%
NEUTROPHIL [4]: 5.67%
NUCLEATED RED BLOOD CELLS [4]: 0 /100WBC
PLATELET COUNT [4]: 1349.33 x10E3/uL
ALKALINE PHOSPHATASE [4]: 303.33 u/L
ASPARTATE AMINOTRANSFERASE [4]: 68.67 u/L
BLOOD UREA NITROGEN [4]: 17.67 mg/dL
CARBON DIOXIDE [4]: 27.33 mmol/L
CHLORIDE [4]: 101.33 MEQ/L
CHOLESTEROL [4]: 63.67 mg/dL
CREATINE PHOSPHOKINASE [4]: 199.33 u/L
CREATININE [4]: 0.15 mg/dL
GLUCOSE [4]: 159.33 mg/dL
LACTATE DEHYDROGENASE [4]: 110 u/L
LIPASE [4]: 8.67 u/L
PHOSPHORUS [4]: 11.87 mg/dL
POTASSIUM [4]: 6.75 MEQ/L
SODIUM [4]: 144.03 MEQ/L
TOTAL BILIRUBIN [4]: 0.23 mg/dL
TOTAL PROTEIN [4]: 5.83 G/DL
URIC ACID [4]: 1.47 mg/dL

From ChEMBL document CHEMBL3885881, “DrugMatrix”
